Entries after “also recorded” stand apart in the source; their conditions may differ. Like-named read-outs stand apart in the source and are kept apart here.
Legend:
[1] = tested on: Skw3 control transductant 17D (Abacavir-allergic donor); experiment: TCR-transductant stimulation assay, control transductant 17D; assay type: cell-based, human; settings: control 17D, 24 h, heterologous EBV-transformed B cells, no drug 1.4
Excerpt: Skw3 cell lines (Leibniz Institute DSMZ, Brunswick, Germany, (50)) were transduced as described previously (51). […] The resulting retroviruses were used to transduce the TCR-defective Skw3 cell line, which also expresses the human CD8 coreceptor. The TCR-transduced cells outgrowing in selective medium were picked, and the expression of the correct TCR α and β was further assessed by flow cytometry, using a FACS-Canto-I device (BD-Biosciences, San Jose, CA, USA). The transduced cells with stable TCR expression were selected for assessment of reactivity and specificity, which was measured by TCR-induced CD69 expression. Skw3 cell lines expressing the cognate TCR α and β chains were cocultured with autologous EBV-transformed B-lymphoblastoid cell lines (52) at 1:2 ratio at 37° C. Tested drugs were added to the cocultures with the indicated concentrations. After 24 h, cells were stained with anti-human CD3 (Biolegend) and anti-human CD69 (Biolegend) and analysed by flow cytometry. […] Experiments were repeated at least 2 times. […] Heterologous EBV-transformed B cells were also used to stimulate control transductants.

[2] = tested on: Skw3 control transductant AnWe A1 (Allopurinol-allergic donor); experiment: TCR-transductant stimulation assay, control transductant AnWe A1; assay type: cell-based, human; settings: 24 h, heterologous EBV-transformed B cells, no drug 4.3; for % of CD69 expression in CD3+ transfectants, Concentration 2: Allopurinol/Oxypurinol 62.5 μg/ml; for % of CD69 expression in CD3+ transfectants, Concentration 3: Allopurinol/Oxypurinol 250 μg/ml
Excerpt: (§1) In brief, rearranged human variable TCR α- and β genes identified by TCR sequencing were synthesized by custom gene synthesis (GeneUniversal, Newark, Delaware, USA) and cloned into retroviral pMSCV Vector (Takara Bio USA Inc, Mountain View, California, USA) containing puromycin and neomycin resistance genes respectively.
(§2) Levels of CD69 expression were monitored in 10,000 CD3^+ events. Experiments were repeated at least 2 times.
(§3) Skw3 cell lines engineered for the expression of TCRs bearing Vα and Vβ chains from top clones found in patients TEN-3,-7,-10 and -15 were stimulated in vitro with EBV-transformed B cells in presence of graded doses of different drugs, or left unpulsed. […] Results from control transductants generated from Abacavir- (17D), Allopurinol-(AnWeAl) or Sulfamethoxazole- (UNO H13) allergic donors (53) (51) (7) are also shown. Bold and underlined values indicate >2 or >1.5 CD69 expression fold increase versus unpulsed cultures.

[3] = tested on: TCRαβ Skw3 transfectant C1 (TCR of top clone of patient TEN-3); assay type: cell-based, human; settings: 24 h with autologous EBV-transformed B cells, no drug 2.3; for % of CD69 expression in CD3+ transfectants, Concentration 2: Allopurinol/Oxypurinol 62.5 μg/ml, Sulfamethoxazole 100 μg/ml; for % of CD69 expression in CD3+ transfectants, Concentration 3: Allopurinol/Oxypurinol 250 μg/ml, Sulfamethoxazole 200 μg/ml
Excerpt: as §1, §2, §3

[4] = tested on: TCRαβ Skw3 transfectant C4 (TCR of top clone of patient TEN-15); assay type: cell-based, human; settings: for % of CD69 expression in CD3+ transfectants, Concentration 1 / % of CD69 expression in CD3+ transfectants, Concentration 2 / % of CD69 expression in CD3+ transfectants, Concentration 3: transfectant C4, 24 h; for % of CD69 expression in CD3+ transfectants, Concentration 1: Levofloxacin (no drug 6.0) / Metronidazole (no drug 6.3) 25 μg/ml; for % of CD69 expression in CD3+ transfectants, Concentration 2: Levofloxacin (no drug 6.0) / Metronidazole (no drug 6.3) 50 μg/ml; for % of CD69 expression in CD3+ transfectants, Concentration 3: Levofloxacin (no drug 6.0) / Metronidazole (no drug 6.3) 100 μg/ml; for CD69 expression response of transduced Skw3 cells to drug (in words): transductant from patient TEN-15
Excerpt: Skw3 cell lines (Leibniz Institute DSMZ, Brunswick, Germany, (50)) were transduced as described previously (51). […] The resulting retroviruses were used to transduce the TCR-defective Skw3 cell line, which also expresses the human CD8 coreceptor. The TCR-transduced cells outgrowing in selective medium were picked, and the expression of the correct TCR α and β was further assessed by flow cytometry, using a FACS-Canto-I device (BD-Biosciences, San Jose, CA, USA). The transduced cells with stable TCR expression were selected for assessment of reactivity and specificity, which was measured by TCR-induced CD69 expression. Skw3 cell lines expressing the cognate TCR α and β chains were cocultured with autologous EBV-transformed B-lymphoblastoid cell lines (52) at 1:2 ratio at 37° C. Tested drugs were added to the cocultures with the indicated concentrations. After 24 h, cells were stained with anti-human CD3 (Biolegend) and anti-human CD69 (Biolegend) and analysed by flow cytometry. […] Experiments were repeated at least 2 times. […] Then, the productive rearranged TCRα and TCRβ chains were transduced into Skw3 cells, a TCR defective lymphoma line (28) (data not shown). After verification of sustained and stable TCR expression (data not shown), transduced Skw3 cells were stimulated with the culprit (or control) drug in presence of autologous Epstein Barr Virus (EBV)-transformed B cells generated from patient's PBMCs. The following day, we measured CD69 expression at the surface of Skw3 cells, as marker for TCR stimulation. […] Heterologous EBV-transformed B cells were also used to stimulate control transductants.

[5] = tested on: cytotoxic CD8+CD38+ T cells; experiment: TEN preclinical model: NSG mice transferred with PBMCs from a TEN patient and given lamotrigine; daratumumab evaluation; assay type: in vivo, mouse; settings: for depletion of already expanded CD38+ cells (CD8+CD38+ T cells) / depletion of cytotoxic CD8+CD38+Granzyme B+Granulysin+ T cell subset: curative mode: injections from day 29; for depletion of already expanded CD38+ cells (CD8+CD38+ T cells): blood (FIG. 16); for depletion of cytotoxic CD8+CD38+Granzyme B+Granulysin+ T cell subset: blood (FIG. 17); for formation/expansion of cytotoxic CD8+CD38+Granzyme B+Granulysin+ T cell subset: blood (FIG. 15A); for formation/expansion of CD4+CD38+ and CD8+CD38+ T cells: preventive mode: i.p. 200 mg twice weekly from day 4, blood and spleen, throughout the protocol, versus control isotype (FIG. 13); for depletion of cytotoxic cells expressing the TCRVbeta7.1+ chain (CD8+Vbeta7.1+ T cells): spleen at day 31, versus isotype-treated controls (FIG. 12)
Procedure: (§4) NSG animals were adoptively transferred at day 0 with 1.10^6 millions PBMCs collected from a TEN patient, and successively administrated with lamotrigine (the culprit drug; every day, from day 4. In parallel, NSG mice were injected i.p. with […] of daratumumab or a control isotype twice weekly, starting mAb injections from day 4 (preventive mode). Results depict the kinetic of human CD8+Vbeta7.1+ T cell expansion measured by flow cytometry in the spleen of NSG mice at day 31. Results are expressed as mean and individual % of Vbeta7.1+ cell fraction among total CD8+ T cells. Ten mice per group were used in this experiment. Of note, 3.2% of Vbeta7.1+ cells were detected in CD8+ T cells at the time of cell transfer (day 0).
as §4, with “CD4+CD38+/− and CD8+CD38+/−” for “CD8+Vbeta7.1+”, “blood” for “spleen”, “throughout the protocol.” for “at day 31.”, “number” for “%”, “CD38+(A) and CD38− (B) cells/mL blood.” for “Vbeta7.1+ cell fraction among total CD8+ T cells.”, “experiment.” for “experiment. Of note, 3.2% of Vbeta7.1+ cells were detected in CD8+ T cells at the time of cell transfer (day 0).”
(§5) NSG animals were adoptively transferred at day 0 with 1.10^6 millions PBMCs collected from a TEN patient, and successively administrated with lamotrigine (the culprit drug; or vehicle by oral gavage, every day, from day 4. In parallel, NSG mice were injected i.p. with […] of daratumumab or a control isotype twice weekly, starting mAb injections from day 4 (preventive mode). Results depict the kinetic of human CD4+ and CD8+ T cell expansion measured by flow cytometry in the blood of NSG mice throughout the protocol. Results are expressed as mean and individual number of CD4+ and CD8+ T cells/mL blood. Ten mice per group were used in this experiment.
as §5, with “drug; 0.1 mg/kg/day),” for “drug; or vehicle by oral gavage,”, “human cytotoxic CD8+CD38+/−GranzymeB+Granulysin+” for “human CD4+ and CD8+”, “of CD8+CD38+GranzymeB+Granulysin+” for “of CD4+”, “and CD8+CD38+GranzymeB+Granulysin+ cells/mL blood (A). Details for total CD8+GranzymeB+Granulysin+” for “and CD8+”, “T cells are also shown (B).” for “T cells/mL blood.”
NSG animals were adoptively transferred at day 0 with 1.10^6 millions PBMCs collected from a TEN patient, and successively administrated with lamotrigine (the culprit drug; every day, from day 4. In parallel, NSG mice were injected i.p. with […] of daratumumab or a control isotype twice weekly, starting mAb treatment from day 4 (preventive mode) or from day 29 (curative mode). Results depict the kinetic of human CD8+CD38+/− T cell expansion measured by flow cytometry in the blood of NSG mice throughout the protocol. Results are expressed as mean and individual % of CD38+ and CD38− fractions among total CD8+ T cells. Five mice per group were used in this experiment. […]

human CD38+CD8+ T cells = experiment: Model of graft versus host versus disease (GVHD): NGS mice reconstituted with PBMCs from a healthy donor; assay type: in vivo, mouse
Excerpt: NGS mice were reconstituted with 10×10^6 PBMCs from a healthy donor, and treated by two-weekly injections of an anti-CD38+ mAb (Daratumumab, at 100 or 300 microg/mouse). Control group received PBS. Results depict the percentage +/−SD of CD38+ fraction among human CD8+ T cells present in the spleen, as evaluated by flow cytometry 28 days after PBMCs injection.
NGS mice were reconstituted with 10×10^6 PBMCs from a healthy donor, and treated by two-weekly injections of an anti-CD38+ mAb (Daratumumab, at 100 or 300 microg/mouse). Control group received PBS. The percentage of humanization was measured by flow cytometry at day 5 and at day 12 after PBMC injection. It was calculated by dividing the percentage of human blood CD45+ cells/the percentage of total (mouse+human) blood CD45+ cells.
To this end, NGS mice were reconstituted with 10×10^6 peripheral blood mononuclear cells (PBMCs) from a healthy donor, and treated by two-weekly injections of daratumumab (at 100 or 300 microg/mouse). Control group received PBS. Reconstitution is generally assessed by measuring the ratio of humanization (calculated by dividing the % of human blood CD45+ cells/the % of […]). A high ratio of humanization (>50-60%) classically correlates with the appearance of GVHD symptoms, approximately 1 month after transfer.

[6] = 300 microg/mouse, 2 times a week

## Nc1nc(NC2CC2)c2ncn([C@H]3C=C[C@@H](CO)C3)c2n1 [Abacavir]
[1]; Abacavir 1 μg/ml, Pantoprazole 12.5 μg/ml
  % of CD69 expression in CD3+ transfectants, Concentration 1: 93.2%
[1]; Abacavir 10 μg/ml, Pantoprazole 25 μg/ml
  % of CD69 expression in CD3+ transfectants, Concentration 2: 88.9%
[1]; Abacavir 20 μg/ml, Pantoprazole 50 μg/ml
  % of CD69 expression in CD3+ transfectants, Concentration 3: 93.1%

## Oc1ncnc2[nH]ncc12 [Allopurinol]
[2]
  % of CD69 expression in CD3+ transfectants, Concentration 2: 17.1%
  % of CD69 expression in CD3+ transfectants, Concentration 3: 26.4%
[3]
  % of CD69 expression in CD3+ transfectants, Concentration 2: 2.2%
  % of CD69 expression in CD3+ transfectants, Concentration 3: 3.05%

## C[C@H]1COc2c(N3CCN(C)CC3)c(F)cc3c(=O)c(C(=O)O)cn1c23 [Levofloxacin]
[4]
  % of CD69 expression in CD3+ transfectants, Concentration 1: 5.6%
  % of CD69 expression in CD3+ transfectants, Concentration 2: 5.4%
  % of CD69 expression in CD3+ transfectants, Concentration 3: 4.4%

## Cc1ncc([N+](=O)[O-])n1CCO [Metronidazole]
[4]
  CD69 expression response of transduced Skw3 cells to drug (in words): failed to respond
  % of CD69 expression in CD3+ transfectants, Concentration 1: 5.7%
  % of CD69 expression in CD3+ transfectants, Concentration 2: 5.4%
  % of CD69 expression in CD3+ transfectants, Concentration 3: 6.0%
[4]; listed as metronidazole
  CD69 expression response of transduced Skw3 cells to drug (in words): failed to detect robust CD69+ expression

## O=c1[nH]c(=O)c2c[nH]nc2[nH]1 [Oxypurinol]
[2]
  % of CD69 expression in CD3+ transfectants, Concentration 2: 5.0%
  % of CD69 expression in CD3+ transfectants, Concentration 3: 5.75%
[3]
  % of CD69 expression in CD3+ transfectants, Concentration 2: 22.9%
  % of CD69 expression in CD3+ transfectants, Concentration 3: 39.6%

## Cc1cc(NS(=O)(=O)c2ccc(N)cc2)no1 [Sulfamethoxazole]
[3]
  % of CD69 expression in CD3+ transfectants, Concentration 2: 1.3%
  % of CD69 expression in CD3+ transfectants, Concentration 3: 1.4%

## Daratumumab
[5]
  depletion of already expanded CD38+ cells (CD8+CD38+ T cells): acutely depleted the CD38+ cells that have already expanded
  depletion of cytotoxic CD8+CD38+Granzyme B+Granulysin+ T cell subset: acutely depleted
  formation/expansion of CD4+CD38+ and CD8+CD38+ T cells: efficiently and extensively prevented the formation of CD4+CD38+ and CD8+CD38+ T cells
[5]; listed as Daratumamub
  depletion of already expanded CD38+ cells (CD8+CD38+ T cells): efficiently depleted
  depletion of cytotoxic CD8+CD38+Granzyme B+Granulysin+ T cell subset: efficiently depleted
  formation/expansion of CD4+CD38+ and CD8+CD38+ T cells: blocked the expansion
[5]; preventive mode, from day 4 (FIG. 13B)
  expansion of T cell subsets which do not express CD38 marker: did not avoid the progressive expansion of some T cell subsets
[5]; preventive mode, from day 4
  formation/expansion of cytotoxic CD8+CD38+Granzyme B+Granulysin+ T cell subset: preventing the formation of cytotoxic CD8+CD38+Granzyme B+Granulysin+ T cell subset
[5]; preventive mode, from day 4, listed as Daratumamub
  formation/expansion of cytotoxic CD8+CD38+Granzyme B+Granulysin+ T cell subset: strongly inhibited the expansion
[5]; preventive mode, from day 4, blood (FIG. 15B)
  accumulation of cytotoxic T cells (total CD8+GranzymeB+Granulysin+): severely impaired the accumulation of cytotoxic T cells
[5]; preventive mode, from day 4, versus control isotype (FIG. 14)
  global T cell expansion (CD4+ and CD8+ T cells/mL blood): Lower expansion; also recorded: dramatically delayed and impaired the global T cell expansion
[5]; preventive mode
  depletion of cytotoxic cells expressing the TCRVbeta7.1+ chain (CD8+Vbeta7.1+ T cells): strong depletion
[5]; preventive mode, listed as Daratumamub
  depletion of cytotoxic cells expressing the TCRVbeta7.1+ chain (CD8+Vbeta7.1+ T cells): preferentially depleted
Human CD38+CD8+ T cells; [6]
  GVHD development, higher regimen: failed to prevent GVDH development
  T cell expansion, higher regimen: transiently inhibited T cell expansion
Human CD38+CD8+ T cells; day 12, 7 days after the initial daratumumab injection, blood (FIG. 8)
  expansion of human cells (ratio of humanization): transiently inhibited the expansion of human cells
Human CD38+CD8+ T cells; day 19, 14 days after the initial daratumumab injection
  expansion of human cells (ratio of humanization): inhibition was lost
Human CD38+CD8+ T cells; day 28, two-weekly injections, 100 or 300 microg/mouse
  development of the GVHD: failed to hamper the development of the GVHD
Human CD38+CD8+ T cells; murine GVHD model
  human CD38+CD8+ T cell levels in blood: reduction of human CD8+CD38+ T cell levels in blood; also recorded: reduction of human CD38+CD8+ T cells levels in blood
Human CD38+CD8+ T cells; two-weekly injections, 100 or 300 microg/mouse, spleen, flow cytometry, 28 days after PBMCs injection (FIG. 7), preliminary experiments
  depletion of CD38+ cells (CD38+ fraction among human CD8+ T cells): depleted CD38+ cells

From patent publication US20240003879A1, “METHODS FOR DIAGNOSIS AND MONITORING OF TOXIC EPIDERMAL NECROLYSIS” (INSERM (INSTITUT NATIONAL DE LA SANTÉ ET DE LA RECHERCHE …, priority 2020, published 2024)
